“Also recorded” adds a separate entry of the source. Ends that are not written are not given here.
Columns and labels:
MRSA [1] = test: Kill or inhibit growth/proliferation; morphology, biofilm and growth disruption (Tables 5, 6); format: cell-based, Methicillin-resistant Staphylococcus aureus; parameters: key: A: Peptide aggregates; B: Less hyphal formation; Clumps; Diffuse clumps and small polyps; F: Diffuse growth; H: Thin; I: Growth inhibition; Microcolony formation; Rippled; Small polyps; Thick; W: Halo formation on top, microlonies on bottom; note: test concentration or dose not given here
microorganisms = test: Peptides having multiple activities (targeting/binding, antimicrobial, growth or phenotype altering)
Text: In certain embodiments, peptides described herein can have multiple activities. Thus for example, a peptide can have both binding/targeting activity and antimicrobial activity. Such peptides can be used, e.g., in a chimeric construct, for any or all of these properties. Thus, for example, a peptide designated “B” in Table 8 can be used as a targeting peptide. If it is also designated G or M it can also be used for antimicrobial activity.

S. pneumoniae [2] = test: Kill or inhibit growth/proliferation; morphology, biofilm and growth disruption (Tables 5, 6); format: cell-based, Streptococcus pneumoniae; parameters: key: A: Peptide aggregates; B: Less hyphal formation; Clumps; Diffuse clumps and small polyps; F: Diffuse growth; H: Thin; I: Growth inhibition; Microcolony formation; Rippled; Small polyps; Thick; W: Halo formation on top, microlonies on bottom; note: test concentration or dose not given here
S. mutans = test: as above; format: cell-based, Streptococcus mutans; parameters: key: A: Peptide aggregates; B: Less hyphal formation; Clumps; Diffuse clumps and small polyps; F: Diffuse growth; H: Thin; I: Growth inhibition; Microcolony formation; Rippled; Small polyps; Thick; W: Halo formation on top, microlonies on bottom; note: test concentration or dose not given here
S. epidermidis [3] = test: as above; format: cell-based, Staphylococcus epidermidis; parameters: key: A: Peptide aggregates; B: Less hyphal formation; Clumps; Diffuse clumps and small polyps; F: Diffuse growth; H: Thin; I: Growth inhibition; Microcolony formation; Rippled; Small polyps; Thick; W: Halo formation on top, microlonies on bottom
MRSA [4] = test: MIC (broth microdilution); format: cell-based, Methicillin-resistant Staphylococcus aureus
Procedure: (§1) Typically, the in vitro antimicrobial activity of antimicrobial agents is tested using standard NCCLS bacterial inhibition assays, or MIC tests (see, National Committee on Clinical Laboratory Standards “Performance Standards for Antimicrobial Susceptibility Testing,” NCCLS Document M100-S5 Vol. 14, No. 16, December 1994; “Methods for dilution antimicrobial susceptibility test for bacteria that grow aerobically-Third Edition,” Approved Standard M7-A3, National Committee for Clinical Standards, Villanova, Pa.).
(§2) Briefly, ˜1×10^5 cfu/mL bacteria were diluted in TH (S. mutans), or Mueller-Hinton (MH) broth (all other organisms) and distributed to 96-well plates. Serially-diluted (2-fold) peptides were then added and the plates incubated at 37° C. for 18-24 h. […] All experiments were conducted 10 times.

S. epidermidis [5] = format: cell-based, Staphylococcus epidermidis; conditions: S. epidermidis
Procedure: as §1, §2

[6] = test system: microorganisms (e.g., bacteria, yeasts, fungi); test: Targeting peptide binding to target microorganisms (Table 3); conditions: preferably 1x PBS; for Target(s): microorganism(s) the targeting peptide binds; for Target(s) (microorganisms bound by the targeting peptide): peptide binding in aqueous buffers varied by peptide solubility
A. niger = test: MIC (broth microdilution); format: cell-based, Aspergillus niger
Procedure: as §1, §2

S. pneumoniae [7] = test: MIC (broth microdilution); format: cell-based, Streptococcus pneumoniae
Procedure: as §1, §2

C. jejuni = test: Kill or inhibit growth/proliferation; morphology, biofilm and growth disruption (Tables 5, 6); format: cell-based, Campylobacter jejuni; parameters: key: A: Peptide aggregates; B: Less hyphal formation; Clumps; Diffuse clumps and small polyps; F: Diffuse growth; H: Thin; I: Growth inhibition; Microcolony formation; Rippled; Small polyps; Thick; W: Halo formation on top, microlonies on bottom; note: test concentration or dose not given here
C. jeikeium = test: as above; format: cell-based, Corynebacterium jeikeium; parameters: key: A: Peptide aggregates; B: Less hyphal formation; Clumps; Diffuse clumps and small polyps; F: Diffuse growth; H: Thin; I: Growth inhibition; Microcolony formation; Rippled; Small polyps; Thick; W: Halo formation on top, microlonies on bottom; note: test concentration or dose not given here
C. albicans = test: as above; format: cell-based, Candida albicans; parameters: key: A: Peptide aggregates; B: Less hyphal formation; Clumps; Diffuse clumps and small polyps; F: Diffuse growth; H: Thin; I: Growth inhibition; Microcolony formation; Rippled; Small polyps; Thick; W: Halo formation on top, microlonies on bottom; note: test concentration or dose not given here
B. subtilis [8] = test: as above; format: cell-based, Bacillus subtilis; parameters: key: A: Peptide aggregates; B: Less hyphal formation; Clumps; Diffuse clumps and small polyps; F: Diffuse growth; H: Thin; I: Growth inhibition; Microcolony formation; Rippled; Small polyps; Thick; W: Halo formation on top, microlonies on bottom
B. subtilis [9] = test: MIC (broth microdilution); format: cell-based, Bacillus subtilis
Procedure: as §1, §2

M. luteus = test: Kill or inhibit growth/proliferation; morphology, biofilm and growth disruption (Tables 5, 6); format: cell-based, Micrococcus luteus; parameters: key: A: Peptide aggregates; B: Less hyphal formation; Clumps; Diffuse clumps and small polyps; F: Diffuse growth; H: Thin; I: Growth inhibition; Microcolony formation; Rippled; Small polyps; Thick; W: Halo formation on top, microlonies on bottom; note: test concentration or dose not given here
P. gingivalis = test: as above; format: cell-based, Porphyromonas gingivalis; parameters: key: A: Peptide aggregates; B: Less hyphal formation; Clumps; Diffuse clumps and small polyps; F: Diffuse growth; H: Thin; I: Growth inhibition; Microcolony formation; Rippled; Small polyps; Thick; W: Halo formation on top, microlonies on bottom
E. coli = test: as above; format: cell-based, Escherichia coli; parameters: key: A: Peptide aggregates; B: Less hyphal formation; Clumps; Diffuse clumps and small polyps; F: Diffuse growth; H: Thin; I: Growth inhibition; Microcolony formation; Rippled; Small polyps; Thick; W: Halo formation on top, microlonies on bottom; note: test concentration or dose not given here
E. faecalis = test: as above; format: cell-based, Enterococcus faecalis; parameters: key: A: Peptide aggregates; B: Less hyphal formation; Clumps; Diffuse clumps and small polyps; F: Diffuse growth; H: Thin; I: Growth inhibition; Microcolony formation; Rippled; Small polyps; Thick; W: Halo formation on top, microlonies on bottom; note: test concentration or dose not given here
P. aeruginosa = test: as above; format: cell-based, Pseudomonas aeruginosa; parameters: key: A: Peptide aggregates; B: Less hyphal formation; Clumps; Diffuse clumps and small polyps; F: Diffuse growth; H: Thin; I: Growth inhibition; Microcolony formation; Rippled; Small polyps; Thick; W: Halo formation on top, microlonies on bottom; note: test concentration or dose not given here
F. nucleatum = test: as above; format: cell-based, Fusobacterium nucleatum; parameters: key: A: Peptide aggregates; B: Less hyphal formation; Clumps; Diffuse clumps and small polyps; F: Diffuse growth; H: Thin; I: Growth inhibition; Microcolony formation; Rippled; Small polyps; Thick; W: Halo formation on top, microlonies on bottom
[10] = peptide binding conducted in aqueous buffers varied by peptide solubility
Throughout, for Organism, effect (morphology, biofilm and growth disruption): test concentration or dose not given here.
Throughout, for Organism, effect: test concentration or dose not given here.

| Substance | Activities (microorganisms) | Organism, effect (S. pneumoniae [2]) | Target(s) [6, 10] | MIC (A. niger) | MIC (S. pneumoniae [7]) | Organism, effect (morphology, biofilm and growth disruption) (P. gingivalis) | other results |
| --- | --- | --- | --- | --- | --- | --- | --- |
| KFQGEFTNIGQSYIVSASHMSTSLNTGK [PF-583] | G B M | S. pneumoniae (D) | – | – | – | – | Organism, effect (MRSA [1]): MRSA (I); Organism, effect (S. mutans): S. mutans (F); Organism, effect (S. epidermidis [3]): S. epidermidis (I); MIC (MRSA [4]): MRSA , 50 μM; MIC (S. epidermidis [5]): S. epidermidis, 50 μM |
| LSEMERRRLRKRA-NH2 [PF-529] | G B M | S. pneumoniae (H) | S. epidermidis and E. coli and C. albicans and MRSA and S. pneumoniae and E. faecalis and C. jeikeium | A. niger, 50 μM | S. pneumoniae, 50 μM | – | – |
| RRGCTERLRRMARRNAWDLYAEHFY [PF-148] | G B M | S. pneumoniae (R) | – | A. niger, 50 μM | – | – | Organism, effect (C. jejuni): C. jejuni (H); Organism, effect (MRSA [1]): MRSA (C); Organism, effect (C. jeikeium): C. jeikeium (H); Organism, effect (S. epidermidis [3]): S. epidermidis (D); Organism, effect (C. albicans): C. albicans (B); Organism, effect (B. subtilis [8]): B. subtilis (I); MIC (B. subtilis [9]): B. subtilis, 50 μM; Organism, effect (M. luteus): M. luteus (A) |
| PF-C052: peptide having multiple activities (SRFRNGV; Peptide with targeting and/or antimicrobial activity) | G B | – | – | – | – | P. gingivalis (H) | Target(s) (microorganisms bound by the targeting peptide) [6]: A. naeslundii; also recorded: F. nucleatum; also recorded: S. mutans |
| SLQSQLGPCLHDQRH [PF-448] | G B M | S. pneumoniae (I) | S. epidermidis; also recorded: M. luteus; also recorded: P. mirabilis; also recorded: E. coli; also recorded: S. pneumoniae; also recorded: E. faecalis; also recorded: C. jeikeium; also recorded: C. jejuni | A. niger, 25 μM | S. pneumoniae, 50 μM | – | – |
| PF-C180: peptide having multiple activities (TVEELDKAFTWGAAAALAIGVIAINVGLAAGYCYNNNDVF; Peptide with targeting and/or antimicrobial activity) | G B | – | – | – | – | P. gingivalis (R) | Target(s) (microorganisms bound by the targeting peptide) [6]: F. nucleatum; also recorded: P. gingivalis; also recorded: S. mutans; also recorded: T. denticola; Organism, effect (morphology, biofilm and growth disruption) (S. mutans): S. mutans (S) |
| PDAPRTCYHKPILAALSRIVVTDR [PF-524] | G B M | S. pneumoniae (M) | S. epidermidis and E. coli and P. aeruginosa and C. albicans and MRSA and S. pneumoniae and E. faecalis and C. jeikeium | – | S. pneumoniae, 50 μM | – | Organism, effect (MRSA [1]): MRSA (C); Organism, effect (E. coli): E. coli (M); Organism, effect (E. faecalis): E. faecalis (C) |
| PF-C089 (MPKRHYYKLEAKALQFGLPFAYSPIQLLK; Peptide with targeting and/or antimicrobial activity) | – | – | – | – | – | P. gingivalis (R) | – |
| RESKLIAMADMIRRRI-NH2 [PF-545] | G B M | – | S. epidermidis; also recorded: E. coli; also recorded: P. aeruginosa; also recorded: S. pneumoniae; also recorded: E. faecalis; also recorded: C. jeikeium | A. niger, 50 μM | – | – | Organism, effect (C. jeikeium): C. jeikeium (H); Organism, effect (E. faecalis): E. faecalis (H); Organism, effect (C. albicans): C. albicans (B); Organism, effect (B. subtilis [8]): B. subtilis (I); MIC (B. subtilis [9]): B. subtilis, 25 μM; MIC (MRSA [4]): MRSA , 50 μM |
| VMQSLYVKPPLILVTKLAQQN [PF-511] | G B M | S. pneumoniae (H) | E. coli; also recorded: P. aeruginosa; also recorded: S. pneumoniae; also recorded: C. jeikeium | – | S. pneumoniae, 50 μM | – | – |
| CGKLLEQKNFFLKTR [PF-521] | G B M | S. pneumoniae (H) | S. epidermidis; also recorded: E. coli; also recorded: P. aeruginosa; also recorded: S. pneumoniae; also recorded: E. faecalis | – | S. pneumoniae, 50 μM | – | – |
| NYAVVSHT [PF-209] | G B M | – | – | – | – | – | Organism, effect (MRSA [1]): MRSA (I); Target(s) ([6]; binding in aqueous buffers depending on peptide solubility): C. albicans; also recorded: C. jeikeium; also recorded: C. jejuni; Organism, effect (S. epidermidis [3]): S. epidermidis (C); Organism, effect (P. aeruginosa): P. aeruginosa (H); MIC (MRSA [4]): MRSA , 50 μM |
| PF-C136: peptide having multiple activities (LILSYQASVYPLFAYLCQQKDY; Peptide with targeting and/or antimicrobial activity) | G B | – | – | – | – | P. gingivalis (R) | Organism, effect (morphology, biofilm and growth disruption) (F. nucleatum): F. nucleatum (C); Target(s) (microorganisms bound by the targeting peptide) [6]: A. naeslundii; also recorded: F. nucleatum; also recorded: P. gingivalis; also recorded: S. mutans; also recorded: T. denticola |
| KFSDQIDKGQDALKDKLGDL [PF-525] | G M | S. pneumoniae (H) | – | A. niger, 50 μM | S. pneumoniae, 50 μM | – | – |
| PF-C293 (IIIILPKIYLVCKTV; Peptide with targeting and/or antimicrobial activity) | – | – | – | – | – | P. gingivalis (R) | Organism, effect (morphology, biofilm and growth disruption) (F. nucleatum): F. nucleatum (T); Organism, effect (morphology, biofilm and growth disruption) (S. mutans): S. mutans (F) |

Reference: patent US20110039762A1, “TARGETED ANTIMICROBIAL MOIETIES” (C3 JIAN, INC., priority 2009, published 2011)
